Results on 35 molecules are retold here after patent publication US7601856B2 (Wyeth, priority 2006, dated 2009).

Read-outs that look alike come from different tables or passages of the source.

In the test the test system is isolated rat bladder strips. The test can be described thus: Inhibition of contractions of isolated rat bladder strips. Conditions: for IC50: 0.5 h; for inhibition at 30 µM: read-out: % Inhibition of Contractility @ 30 μM. On the procedure:
The compounds of the examples were tested to determine their ability to inhibit contractions of isolated rat bladder strips. See Foster, C. […] Malmgren, A. et al. J.Urol.
Male Sprague-Dawley rats (150-200 g) were obtained from ACE animal suppliers. Animals were allowed free access to food and water.
Animals were euthanized by CO2 asphyxiation followed by a bilateral thoracotomy. […] The bladder was opened and then cut into strips 1-2 mm in width and 7-10 mm in length. The strips were subsequently suspended in a 10 ml tissue bath under an initial resting tension of 1.5 g. The strips were held in place by two surgical clips one of which was attached to a fixed hook while the other was attached to an isometric force transducer. […] The carbachol was then washed out and the tissue allowed to relax to its resting level of activity. Following a further 30 minute period of recovery an additional 15 mM KCl were introduced into the tissue bath. […] Following stabilization of this enhanced level of contractile activity, incremental increases in the concentration of test compound or vehicle were introduced into the tissue bath. Contractile activity was measured for each compound or vehicle concentration during the last minute of a 30 minute challenge.
Isometric force developed by the bladder strips was measured using a force transducer and recorded on a polygraph. Contractile activity was assessed by measuring either the average amplitude of the contractions (baseline to peak force) occurring during a one minute period or, preferably, by integrating the contractile activity with respect to time (one minute measuring period).
The percentage inhibition of contractile activity evoked by each concentration of a given test compounds was used to generate a concentration-response curve.

The mark [1] stands for this setting: concentration eliciting 50% inhibition of pre-drug contractile activity, strips stimulated with additional 15 mM KCl, 30 minute challenge per concentration, read-out: IC50.
The mark [2] stands for this setting: maximum percentage inhibition of contractile activity, 30 μM, strips stimulated with additional 15 mM KCl.

As a reminder, the IC50 is the concentration that inhibits the measured activity by half. Take `C[C@@H](OCc1ccccc1)C(NC(=O)OC(C)(C)C)C(=O)Nc1ccc2oc3c(c2c1)CCCCC3` (stereo in doubt) [Example 59, TERT-BUTYL {(1R,2R)-2-(BENZYLOXY)-1-[(7,8,9,10-TETRAHYDRO-6H-BENZO[B]CYCLOHEPTA[D]FURAN-2-YLAMINO)CARBONYL]PROPYL}CARBAMATE]: the half-inhibitory concentration (IC50) under setting [1] was in the range of 1500 to 2000 nM. Still for that read-out and setting: to `CCCC(=O)Nc1ccc2oc3c(c2c1)CCCC3` [Example 10, N-(6,7,8,9-TETRAHYDRO-DIBENZOFURAN-2-YL)-BUTYRAMIDE] belongs 10000 to 15000 nM. Usually inhibition stands for how much of the control response was suppressed. Turning to `O=C(Nc1ccc2oc3c(c2c1)CCCC3)c1ccc(Cl)cc1` [Example 17, 4-CHLORO-N-(6,7,8,9-TETRAHYDRO-DIBENZOFURAN-2-YL)-BENZAMIDE], the inhibition at 30 µM under setting [2] lay within 25 to 30%. Same read-out and setting: to `O=C(Nc1ccc2oc3c(c2c1)CCCC3)c1ccc(F)cc1` [Example 19, 4-FLUORO-N-(6,7,8,9-TETRAHYDRODIBENZO[B,D]FURAN-2-YL)BENZAMIDE] belongs 25 to 35%; to `O=C(Nc1ccc2oc3c(c2c1)CCCC3)c1ccc(C(F)(F)F)cc1` [Example 20, N-(6,7,8,9-TETRAHYDRODIBENZO[B,D]FURAN-2-YL)-4-(TRIFLUOROMETHYL)BENZAMIDE], 15 to 40%; to `O=C(CCc1ccccc1)Nc1ccc2oc3c(c2c1)CCCC3` [Example 21, 3-PHENYL-N-(6,7,8,9-TETRAHYDRODIBENZO[B,D]FURAN-2-YL)PROPANAMIDE], 10 to 30%. Consider `CCCCCC(=O)Nc1ccc2oc3c(c2c1)CCCC3` [Example 22, N-(6,7,8,9-TETRAHYDRODIBENZO[B,D]FURAN-2-YL)HEXANAMIDE], for which, under setting [1], the half-maximal inhibitory concentration (IC50) fell in the range of 1000 to 3000 nM.

As for `O=C(Cc1ccc(F)cc1)Nc1ccc2oc3c(c2c1)CCCCC3` [Example 30, 2-(4-FLUOROPHENYL)-N-(7,8,9,10-TETRAHYDRO-6H-BENZO[B]CYCLOHEPTA[D]FURAN-2-YL)ACETAMIDE], the inhibition at 30 µM under setting [2] lay in the range of 30 to 50%. As for `CCCCC(=O)Nc1ccc2oc3c(c2c1)CCCCC3` [Example 31, N-(7,8,9,10-TETRAHYDRO-6H-BENZO[B]CYCLOHEPTA[d]FURAN-2-YL)PENTANAMIDE], the half-maximal inhibitory concentration (IC50) under setting [1] lay within 3000 to 5000 nM. Still for that read-out and setting: in the case of `CCOC(=O)CCC(=O)Nc1ccc2oc3c(c2c1)CCCCC3` [Example 32, ETHYL 4-OXO-4-(7,8,9,10-TETRAHYDRO-6H-BENZO[B]CYCLOHEPTA[D]FURAN-2-YLAMINO)BUTANOATE] it was 9000 to 12000 nM.

As for `CC(C)(C)c1ccc(C(=O)Nc2ccc3oc4c(c3c2)CCCCC4)cc1` [Example 33, 4-TERT-BUTYL-N-(7,8,9,10-TETRAHYDRO-6H-BENZO[B]CYCLOHEPTA[D]FURAN-2-YL)BENZAMIDE], the half-maximal inhibitory concentration (IC50) under setting [1] lay in the range of 2000 to 3000 nM.

With `CCC(=O)Nc1ccc2oc3c(c2c1)CCCCC3` [Example 34, N-(7,8,9,10-TETRAHYDRO-6H-BENZO[B]CYCLOHEPTA[D]FURAN-2-YL)PROPANAMIDE], the IC50 under setting [1] lay in the range of 500 to 800 nM. Take `CCCCCC(=O)Nc1ccc2oc3c(c2c1)CCCCC3` [Example 35, N-(7,8,9,10-TETRAHYDRO-6H-BENZO[B]CYCLOHEPTA[D]FURAN-2-YL)HEXANAMIDE]: under setting [1], the IC50 lay within 6000 to 9000 nM. On the same count and under the same terms, in the case of `O=C(CCc1ccccc1)Nc1ccc2oc3c(c2c1)CCCCC3` [Example 36, 3-PHENYL-N-(7,8,9,10-TETRAHYDRO-6H-BENZO[B]CYCLOHEPTA[D]FURAN-2-YL)PROPANAMIDE] it was 3000 to 5000 nM. For `O=C(Cc1cccs1)Nc1ccc2oc3c(c2c1)CCCCC3` [Example 37, N-(7,8,9,10-TETRAHYDRO-6H-BENZO[B]CYCLOHEPTA[D]FURAN-2-YL)-2-THIEN-2-YLACETAMIDE], the inhibition at 30 µM fell in the range of 20 to 40%. For `O=C(Nc1ccc2oc3c(c2c1)CCCCC3)c1ccc(C(F)(F)F)cc1` [Example 38, N-7,8,9,10-TETRAHYDRO-6H-BENZO[B]CYCLOHEPTA[D]FURAN-2-yl-4-(TRIFLUOROMETHYL)BENZAMIDE], the inhibition at 30 µM under setting [2] was 5 to 10%. In the case of `O=C(CCl)Nc1ccc2oc3c(c2c1)CCCCC3` [Example 39, 2-CHLORO-N-7,8,9,10-TETRAHYDRO-6H-BENZO[B]CYCLOHEPTA[D]FURAN-2-YLACETAMIDE], the inhibition at 30 µM was 15 to 35%. `O=C(CN1CCOCC1)Nc1ccc2oc3c(c2c1)CCCCC3` [Example 40, 2-MORPHOLIN-4-YL-N-7,8,9,10-TETRAHYDRO-6H-BENZO[b]CYCLOHEPTA[D]FURAN-2-YLACETAMIDE] had an IC50 of 1000 to 3000 nM. The same measure, in the same setting: to `CN(C)CCN(C)CC(=O)Nc1ccc2oc3c(c2c1)CCCCC3` [Example 41] belongs 1000 to 5000 nM. On to `CN(CCc1ccccn1)CC(=O)Nc1ccc2oc3c(c2c1)CCCCC3` [Example 42, N^2-METHYL-N^2-(2-PYRIDIN-2-YLETHYL)-N^1-7,8,9,10-TETRAHYDRO-6H-BENZO[B]CYCLOHEPTA[D]FURAN-2-YLGLYCINAMIDE], for which the inhibition at 30 µM was 30 to 40%. `O=C(CN1CCC2(CC1)OCCO2)Nc1ccc2oc3c(c2c1)CCCCC3` [Example 43, 2-(1,4-DIOXA-8-AZASPIRO[4.5]DEC-8-YL)-N-7,8,9,10-TETRAHYDRO-6H-BENZO[b]CYCLOHEPTA[D]FURAN-2-YLACETAMIDE]: the half-maximal inhibitory concentration (IC50) was 1000 to 3000 nM. Same read-out and setting: in the case of `CN1CCN(CC(=O)Nc2ccc3oc4c(c3c2)CCCCC4)CC1` [Example 44, 2-(4-METHYLPIPERAZIN-1-YL)-N-7,8,9,10-TETRAHYDRO-6H-BENZO[B]CYCLOHEPTA[D]FURAN-2-YLACETAMIDE] it was 1000 to 3000 nM. For `O=C(COCCO)Nc1ccc2oc3c(c2c1)CCCCC3` [Example 45, 2-(2-HYDROXYETHOXY)-N-7,8,9,10-TETRAHYDRO-6H-BENZO[B]CYCLOHEPTA[D]FURAN-2-YLACETAMIDE], the inhibition at 30 µM lay in the range of 15 to 25%. `CCN(C)CC(=O)Nc1ccc2oc3c(c2c1)CCCCC3` [Example 46, N^2-ETHYL-N^2-METHYL-N′-7,8,9,10-TETRAHYDRO-6H-BENZO[B]CYCLOHEPTA[D]FURAN-2-YLGLYCINAMIDE] had a concentration for half-maximal inhibition (IC50) of 7000 to 9000 nM. Regarding `CN(CCO)CC(=O)Nc1ccc2oc3c(c2c1)CCCCC3` [Example 47, N^2-(2-HYDROXYETHYL)-N^2-METHYL-N′-7,8,9,10-TETRAHYDRO-6H-BENZO[B]CYCLOHEPTA[D]FURAN-2-YLGLYCINAMIDE], the inhibition at 30 µM came out at 10%.

In the case of `CC(C)(C)OCC(=O)Nc1ccc2oc3c(c2c1)CCCCC3` [Example 48, 2-TERT-BUTOXY-N-7,8,9,10-TETRAHYDRO-6H-BENZO[B]CYCLOHEPTA[D]FURAN-2-YLACETAMIDE], the inhibition at 30 µM was in the range of 10 to 15%. For the molecule `C[C@H](NC(=O)OCc1ccccc1)C(=O)Nc1ccc2oc3c(c2c1)CCCCC3` [Example 49, BENZYL [(1S)-1-METHYL-2-OXO-2-(7,8,9,10-TETRAHYDRO-6H-BENZO[B]CYCLOHEPTA[D]FURAN-2-YLAMINO)ETHYL]CARBAMATE], the inhibition at 30 µM under setting [2] lay within 30 to 40%. As to `O=C(CN1CCN(c2ncccn2)CC1)Nc1ccc2oc3c(c2c1)CCCCC3` [Example 50, 2-(4-PYRIMIDIN-2-YLPIPERAZIN-1-YL)-N-7,8,9,10-TETRAHYDRO-6H-BENZO[B]CYCLOHEPTA[D]FURAN-2-YLACETAMIDE], the IC50 was 3000 to 5000 nM. Turning to `CC(C)(C)OC(=O)NCC(=O)Nc1ccc2oc3c(c2c1)CCCCC3` [Example 51, TERT-BUTYL [2-OXO-2-(7,8,9,10-TETRAHYDRO-6H-BENZO[B]CYCLOHEPTA[D]FURAN-2-YLAMINO)ETHYL]CARBAMATE], the inhibition at 30 µM under setting [2] fell in the range of 25 to 40%. Consider `NCC(=O)Nc1ccc2oc3c(c2c1)CCCCC3` [Example 52, N^1-7,8,9,10-TETRAHYDRO-6H-BENZO[B]CYCLOHEPTA[D]FURAN-2-YLGLYCINAMIDE], for which the inhibition at 30 µM lay within 20 to 30%. As for `CC(C)(C)OC(=O)N[C@@H](Cc1ccccc1)C(=O)Nc1ccc2oc3c(c2c1)CCCCC3` [Example 53, TERT-BUTYL [(1S)-1-BENZYL-2-OXO-2-(7,8,9,10-TETRAHYDRO-6H-BENZO[B]CYCLOHEPTA[D]FURAN-2-YLAMINO)ETHYL]CARBAMATE], under setting [2], the inhibition at 30 µM was 15 to 25%. `CC(C)(C)OC(=O)N1CCC[C@H]1C(=O)Nc1ccc2oc3c(c2c1)CCCCC3` [Example 54, TERT-BUTYL (2S)-2-[(7,8,9,10-TETRAHYDRO-6H-BENZO[B]CYCLOHEPTA[D]FURAN-2-YLAMINO)CARBONYL]PYRROLIDINE-1-CARBOXYLATE]: the concentration for half-maximal inhibition (IC50) under setting [1] fell in the range of 6000 to 8000 nM. The same measure, in the same setting: in the case of `CC(C)(C)OC(=O)N[C@@H](Cc1ccncc1)C(=O)Nc1ccc2oc3c(c2c1)CCCCC3` [Example 55, TERT-BUTYL [(1S)-2-OXO-1-(PYRIDIN-4-YLMETHYL)-2-(7,8,9,10-TETRAHYDRO-6H-BENZO[B]CYCLOHEPTA[D]FURAN-2-YLAMINO)ETHYL]CARBAMATE] it was 7000 to 10000 nM; in that of `C[C@H](NC(=O)OC(C)(C)C)C(=O)Nc1ccc2oc3c(c2c1)CCCCC3` [Example 56, TERT-BUTYL [(1S)-1-METHYL-2-OXO-2-(7,8,9,10-TETRAHYDRO-6H-BENZO[B]CYCLOHEPTA[D]FURAN-2-YLAMINO)ETHYL]CARBAMATE], 300 to 600 nM. Consider `O=C(Nc1ccc2oc3c(c2c1)CCCCC3)[C@@H]1CCCN1` [Example 57, N-7,8,9,10-TETRAHYDRO-6H-BENZO[B]CYCLOHEPTA[D]FURAN-2-YL-L-PROLINAMIDE], for which, under setting [2], the inhibition at 30 µM lay in the range of 20 to 30%.
